Test results taken from article PMC3229521, “Engineering Genetically Encoded Nanosensors for Real-Time In Vivo Measurements of Citrate Concentrations” (PLoS ONE, 2011).
Where a name gives a salt, the structure may show the parent alone.

Experiments:
Experiment in all cases: Citrate titration of purified FRET nanosensors in a fluorescence plate reader (excitation 433 nm, Venus/CFP emission ratio 530/488 nm) in 20 mM MOPS, 20 mM NaCl, pH 7, fitted to a single site binding curve.
Settings in all cases: n = 2
CIT0.5m = biological target: T1, CIT0.5m (Klebsiella pneumoniae, UniProt P52687, K120A/R92A)
T1 construct: gene citA; CitA residues 6-130 inserted between CFP and Venus (pGW1, pRSET-based), His-tag purified
T1 sequence (P52687 49-173 R92A/K120A): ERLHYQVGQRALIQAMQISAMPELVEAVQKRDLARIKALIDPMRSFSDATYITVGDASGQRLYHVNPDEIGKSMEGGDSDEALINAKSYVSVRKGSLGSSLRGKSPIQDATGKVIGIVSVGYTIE
Experimental: (§1) Next, we thoroughly tested the newly created nanosensor CFP-CitA6-130-Venus in vitro. We determined the binding properties by mixing the sensor with 0.5 to 1000 µM citrate. The obtained ratios were fitted to a single site binding curve as described in the methods section. We determined the KD, the ligand concentration at half-maximal saturation, to be 8 µM, which is very close to the value determined by Gerharz et al (2003) using isothermal titration calorimetry to characterize the purified protein [25]. The reproducibility between different batches of proteins extraction was excellent, with ratios in general not differing by more than 5%. A crucial feature for in vivo application is specificity. We thus exposed the nanosensor to a variety of structurally related organic acids including isocitrate, aconitate, α-ketoglutarate, succinate and pyruvate in presence or absence of citrate. […] In the case of isocitrate, we observed an effect only at concentrations above 1 mM (Figure 2 B) in absence of citrate, which by far exceeds the concentration typically observed by metabolomics in microbes. Also, the apparent affinity for citrate was not modified in the presence of isocitrate or aconitate (data not shown), which excludes competitive binding. After confirming the high specificity of the sensor we tested pH stability, which is crucial when aiming to study certain intracellular compartments (Figure S2 A). […] Therefore, the new nanosensor should be functional in most compartments, however it is not suitable for highly acidic compartments such as endosomes or vacuoles. We also tested the effect of high salt concentrations as typically observed in cells. […] Thus, as has been previously observed when comparing nanosensors in vitro and in vivo [13], [23], we can expect the observed fluorescence intensity ratio in vivo to be lower than under assay conditions. The KD and the dynamic range, however, were not altered, and thus relative changes in citrate concentrations can still be monitored in vivo.
(§2) The natural receptor CitA is highly sensitive and detects low concentrations of citrate in the periplasmic environment and thus has a very high affinity for its substrate. For application as an intracellular sensor a saturation concentration of approximately 100 µM appeared too low given the estimates of intracellular concentrations of citrate by metabolomics approaches in the mid micromolar to low millimolar range [3]. We therefore engineered the affinity of the nanosensor for in vivo applications. Gerharz et al systematically investigated residues of the CitA sensor domain involved in citrate binding. Replacement of positively charged amino acids with alanine led to decreased affinity. We chose five of the reported point mutations and introduced them into the sensor CitA6-130. We determined binding constants and total FRET ratios from two independent extractions (Table 1). The binding constants were qualitatively in good agreement with the observations of Gerharz et al., though in some cases we observed a much larger decrease of affinity. This might be due to the different measurement techniques, a different behaviour of the truncated and sandwiched protein compared to the isolated full-length protein, or to the minor differences we found in the sequence compared to the published Klebsiella CitA gene (sequence of the final sensor can be found in Document S1). […] Decreasing the affinity for the designated substrate bears the risk of also reducing specificity. We therefore tested all mutated sensors for binding of isocitrate and aconitate, the most closely related compounds. […] Also, pH and salt sensitivity were similar to the original sensor (data not shown).
(§3) All in vitro assays were performed in a TECAN Infinite 200 plate reader (TECAN, Austria) in 96 well format (modified from). Proteins, reagents and ligands were dissolved in assay buffer (20 mM Mops, 20 mM NaCl, pH 7 unless specified otherwise). […]

CIT1.8m = biological target: T2, CIT1.8m (Klebsiella pneumoniae, UniProt P52687, R150A)
T2 construct: gene citA; CitA residues 6-130 inserted between CFP and Venus (pGW1, pRSET-based), His-tag purified
T2 sequence (P52687 49-173 R150A): T1 sequence (P52687 49-173 R92A/K120A)
Experimental: as §1, §2, §3

CIT32μ = biological target: T3, CIT32μ (Klebsiella pneumoniae, UniProt P52687, K135A)
T3 construct: gene citA; CitA residues 6-130 inserted between CFP and Venus (pGW1, pRSET-based), His-tag purified
T3 sequence (P52687 49-173 K135A): T1 sequence (P52687 49-173 R92A/K120A)
Experimental: as §1, §2, §3

CIT50μ = biological target: T4, CIT50μ (Klebsiella pneumoniae, UniProt P52687, R92A)
T4 construct: gene citA; CitA residues 6-130 inserted between CFP and Venus (pGW1, pRSET-based), His-tag purified
T4 sequence (P52687 49-173 R92A): T1 sequence (P52687 49-173 R92A/K120A)
Experimental: as §1, §2, §3

[1] = biological target: T5, CIT8μ (CFP-CitA6-130-Venus) (Klebsiella pneumoniae, UniProt P52687)
T5 construct: gene citA; CitA residues 6-130 inserted between CFP and Venus (pGW1, pRSET-based), His-tag purified
T5 sequence (P52687 50-174): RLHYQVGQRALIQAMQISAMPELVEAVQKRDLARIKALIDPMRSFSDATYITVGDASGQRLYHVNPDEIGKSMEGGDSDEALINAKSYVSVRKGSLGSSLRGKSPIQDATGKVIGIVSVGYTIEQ
Experimental: as §1, §2, §3

CIT96μ = biological target: T6, CIT96μ (Klebsiella pneumoniae, UniProt P52687, K120A)
T6 construct: gene citA; CitA residues 6-130 inserted between CFP and Venus (pGW1, pRSET-based), His-tag purified
T6 sequence (P52687 49-173 K120A): T1 sequence (P52687 49-173 R92A/K120A)
Experimental: as §1, §2, §3

`O=C(O)CC(O)(CC(=O)O)C(=O)O` [citrate, citrate (citric acid)] gave a Kd (CIT0.5m) of 470 µM, a Kd (CIT1.8m) of 1760 µM and a Kd (CIT32μ) of 32 µM. It also gave a Kd (CIT50μ) of 50 µM, a Kd [1] of 8 µM and a Kd (CIT96μ) of 96 µM.
